Test system: H1 human embryonic stem cells
Test: Secondary assay: panel of compounds with growth factor combinations and muscimol, no activin A (Example 6, Table 5)
Type: cell-based
Details: no AA (with Wnt3a)
Method: Clusters of H1 human embryonic stem cells were grown on reduced growth factor […]™ (Invitrogen; Cat #356231)-coated tissue culture plastic. Cells were passaged using collagenase (Invitrogen; Cat #17104-019) treatment and gentle scraping, washed to remove residual enzyme, and plated with even dispersal at a ratio of 1:1 (surface area) on reduced growth factor […]™-coated 96-well black plates (Packard ViewPlates; PerkinElmer; Cat #6005182) using volumes of 100 μl/well. Cells were allowed to attach as clusters and then recover log phase growth over a 1 to 3 day period, feeding daily with MEF-conditioned medium supplemented with 8 ng/ml bFGF (R&D Systems; Cat #233-FB). Plates were maintained at 37° C., 5% CO2 in a humidified box throughout the duration of the assay. Stocks of growth factors purchased from R&D Systems were EGF (Cat #236-EG), FGF4 (Cat #235-F4), PDGF-A (Cat #221-AA), PDGF-D (Cat #1159-SB), PDGF-A/B (Cat #222-AB), and VEGF (Cat #293-VE). […] All growth factors were solubilized in PBS with 0.1% BSA (Sigma; Cat #A7888) and stored frozen at −80° C. […] Cat #D2650) and stored frozen at −80° C. Compounds were available as 5 mM stocks in 96-well plate format, solubilized in 100% DMSO and stored at −80° C. Compounds were further diluted to an intermediate concentration of 0.2 mM in 50 mM HEPES (Invitrogen; Cat #15630-080), 20% DMSO and stored at 4° C. All growth factors and inhibitors were prepared in a deep well, 96-well polypropylene plate, diluted to 5× intermediate stocks in DMEM:F12 base medium at the beginning of assay and stored at 4° C. A secondary screening assay was conducted, testing in triplicate and feeding on alternate days over the four-day assay timeframe. Assays were initiated by aspirating culture medium from each well followed by three washes in PBS to remove residual growth factors and serum. Test volumes of 80 μl per well were added back containing DMEM:F12 base medium (Invitrogen; Cat #11330-032) supplemented with 0.625% FCS (HyClone; […] All remaining growth factors were tested at a final assay concentration of 50 ng/ml (EGF, FGF4, PDGF-A, PDGF-A/B, VEGF). […] At the conclusion of four-days of culture, assay plates were washed twice with PBS, fixed with 4% paraformaldehyde (Alexis Biochemical; Cat #ALX-350-011) at room temperature for 20 minutes, then washed three times with PBS and permeabilized with 0.5% Triton X-100 (Sigma; Cat #T8760-2) for 20 minutes at room temperature. Cells were washed again three times with PBS and blocked with 4% chicken serum (Invitrogen; Cat #16110082) in PBS for 30 minutes at room temperature. Primary antibody (goat anti-human SOX17; R&D Systems; cat #AF1924) was diluted 1:100 in 4% chicken serum and added to each well for one hour at room temperature. Alexa Fluor 488 conjugated secondary antibody (chicken anti-goat IgG; Molecular Probes; Cat #AZ1467) was diluted 1:200 in PBS and added to each sample well after washing three times with PBS. To counterstain nuclei, 4 μg/ml Hoechst 33342 (Invitrogen; Cat #H3570) was added for ten minutes at room temperature. Plates were washed once with PBS and left in 100 μl/well PBS for imaging. Imaging was performed using an IN Cell Analyzer 1000 (GE Healthcare) utilizing the 51008bs dichroic for cells stained with Hoechst 33342 and Alexa Fluor 488. Exposure times were optimized from positive control wells and from untreated negative control wells stained with secondary antibody alone. Images from 15 fields per well were acquired to compensate for any cell loss during the bioassay and subsequent staining procedures. […] Segmentation for the nuclei was determined based on grayscale levels (baseline range 100-300) and nuclear size. Averages and standard deviations were calculated for each replicate data set. Total SOX17 protein expression was reported as total intensity or integrated intensity, defined as total fluorescence of the cell multiplied by the area of the cell. […]

[1] = EGF + FGF4 + PDGF-AB + Muscimol

Compound	Cell Number, % of positive control (EGF)	Cell Number, Average Total Cell Number (EGF)	Sox17 Expression, % of positive control (EGF)	Sox17 Expression, Average Total Intensity (EGF)	Cell Number, % of positive control (EGF + FGF4)	Cell Number, Average Total Cell Number (EGF + FGF4)	Sox17 Expression, % of positive control (EGF + FGF4)	Sox17 Expression, Average Total Intensity (EGF + FGF4)	Cell Number, % of positive control (EGF + FGF4 + PDGF-A + Muscimol)	Cell Number, Average Total Cell Number (EGF + FGF4 + PDGF-A + Muscimol)	Sox17 Expression, % of positive control (EGF + FGF4 + PDGF-A + Muscimol)	Sox17 Expression, Average Total Intensity (EGF + FGF4 + PDGF-A + Muscimol)	Cell Number, % of positive control (EGF + FGF4 + PDGF-A + VEGF)	Cell Number, Average Total Cell Number (EGF + FGF4 + PDGF-A + VEGF)	Sox17 Expression, % of positive control (EGF + FGF4 + PDGF-A + VEGF)	Sox17 Expression, Average Total Intensity (EGF + FGF4 + PDGF-A + VEGF)	Cell Number, % of positive control (EGF + FGF4 + PDGF-AB)	Cell Number, Average Total Cell Number (EGF + FGF4 + PDGF-AB)	Sox17 Expression, % of positive control (EGF + FGF4 + PDGF-AB)	Sox17 Expression, Average Total Intensity (EGF + FGF4 + PDGF-AB)	further results
O=C1NCCCc2cncc(c2)-c2ncnc(n2)Nc2cccc(c2)CN2CCCC1C2 (stereo not drawn) [Compound 17, 3,5,7,14,20,26,31-Heptaazapentacyclo[22.3.1.1-2,6˜1˜8,12˜1˜14,18˜]hentriaconta-1(28), 2(31), 3,5,8(30), 9,11,24,26-nonaen-19-one]	73.43%	6942	0.74%	1.27E+06	60.69%	5738	1.83%	3.14E+06	144.37%	13649	8.43%	1.45E+07	110.85%	10480	5.23%	8.97E+06	47.10%	4453	0.54%	9.30E+05	Cell Number, % of positive control [1]: 109.91%; Cell Number, Average Total Cell Number [1]: 10391; Sox17 Expression, % of positive control [1]: 5.20%; Sox17 Expression, Average Total Intensity [1]: 8.92E+06; Cell Number, % of positive control (EGF + PDGF-A + VEGF): 60.59%; Cell Number, Average Total Cell Number (EGF + PDGF-A + VEGF): 5728; Sox17 Expression, % of positive control (EGF + PDGF-A + VEGF): 1.24%; Sox17 Expression, Average Total Intensity (EGF + PDGF-A + VEGF): 2.14E+06; Cell Number, % of positive control (FGF4 + PDGF-A + VEGF): 139.59%; Cell Number, Average Total Cell Number (FGF4 + PDGF-A + VEGF): 13198; Sox17 Expression, % of positive control (FGF4 + PDGF-A + VEGF): 7.54%; Sox17 Expression, Average Total Intensity (FGF4 + PDGF-A + VEGF): 1.29E+07
O=C1NCCCc2cncc(c2)-c2ncnc(n2)Nc2cccc(c2)CN2CCC1CC2 [Compound 22, 1,8,10,12,16,22,30-Heptaazapentacyclo[22.2.2.1-3,7˜0.1˜9,13˜1-14,18˜]hentriaconta-3(31), 4,6,9(30), 10,12,14(29), 15,17-nonaen-23-one]	149.19%	14105	1.02%	1.75E+06	137.19%	12971	6.05%	1.04E+07	122.80%	11610	7.77%	1.33E+07	132.44%	12522	4.59%	7.88E+06	175.36%	16580	5.01%	8.60E+06	Cell Number, % of positive control [1]: 155.23%; Cell Number, Average Total Cell Number [1]: 14676; Sox17 Expression, % of positive control [1]: 3.27%; Sox17 Expression, Average Total Intensity [1]: 5.61E+06; Cell Number, % of positive control (EGF + PDGF-A + VEGF): 215.48%; Cell Number, Average Total Cell Number (EGF + PDGF-A + VEGF): 20372; Sox17 Expression, % of positive control (EGF + PDGF-A + VEGF): 2.91%; Sox17 Expression, Average Total Intensity (EGF + PDGF-A + VEGF): 4.99E+06; Cell Number, % of positive control (FGF4 + PDGF-A + VEGF): 129.85%; Cell Number, Average Total Cell Number (FGF4 + PDGF-A + VEGF): 12277; Sox17 Expression, % of positive control (FGF4 + PDGF-A + VEGF): 2.86%; Sox17 Expression, Average Total Intensity (FGF4 + PDGF-A + VEGF): 4.90E+06
CCN1CCCc2cccc(c2)-c2ncnc(n2)Nc2cccc(c2)CCNC(=O)C1 [Compound 29, 18-Ethyl-3,5,7,15,18,28-hexaazatetracyclo[20.3.1.1˜2,6˜0.1˜8,12˜]octacosa-1(26), 2(28), 3,5,8(27), 9,11,22,24-nonaen-16-one]	18.84%	1971	−9.00%	−1.44E+07	71.10%	7436	−2.72%	−4.35E+06	96.30%	10071	1.85%	2.95E+06	84.70%	8858	−4.48%	−7.15E+06	62.48%	6535	−4.71%	−7.52E+06	Cell Number, % of positive control [1]: 13.15%; Cell Number, Average Total Cell Number [1]: 1376; Sox17 Expression, % of positive control [1]: −8.91%; Sox17 Expression, Average Total Intensity [1]: −1.42E+07; Cell Number, % of positive control (EGF + PDGF-A + VEGF): 84.91%; Cell Number, Average Total Cell Number (EGF + PDGF-A + VEGF): 8880; Sox17 Expression, % of positive control (EGF + PDGF-A + VEGF): −5.34%; Sox17 Expression, Average Total Intensity (EGF + PDGF-A + VEGF): −8.53E+06; Cell Number, % of positive control (FGF4 + PDGF-A + VEGF): 77.89%; Cell Number, Average Total Cell Number (FGF4 + PDGF-A + VEGF): 8146; Sox17 Expression, % of positive control (FGF4 + PDGF-A + VEGF): −3.02%; Sox17 Expression, Average Total Intensity (FGF4 + PDGF-A + VEGF): −4.82E+06

From patent publication US9593305B2, “Differentiation of pluripotent stem cells” (Janssen Biotech, Inc., priority 2008, dated 2017)
